Where only a bound is given, the exact number is not on record here.

T1 sequence (P04629 510-781 limits assumed): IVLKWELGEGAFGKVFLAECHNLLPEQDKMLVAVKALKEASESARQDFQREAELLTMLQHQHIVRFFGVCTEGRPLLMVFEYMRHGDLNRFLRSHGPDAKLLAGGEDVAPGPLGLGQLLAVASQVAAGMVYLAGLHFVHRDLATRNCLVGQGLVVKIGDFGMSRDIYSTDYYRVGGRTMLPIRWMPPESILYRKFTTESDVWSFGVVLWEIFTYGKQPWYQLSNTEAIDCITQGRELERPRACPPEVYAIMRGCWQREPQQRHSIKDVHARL

The experiment addresses T1, TrkA kinase domain (Homo sapiens, UniProt P04629).
T1 construct: TrkA kinase domain was supplied by SignalChem; purchased SignalChem
The experiment in a line: TrkA Kinase Assay (Trk kinase biochemical assay). The conditions noted are these: 33 pM TrkA, 100 nM peptide substrate, 10 µM ATP; 15 minute preincubation; read-out: TrkA WT IC50. Here is the method: Example 33: TrkA Kinase Assay Protocol
TrkA kinase domain was supplied by SignalChem. Ulight PolyGT peptide substrate and Europium labeled W1024 antiphosphotyrosine antibody were supplied by Perkin Elmer. Assay buffer contained 50 mM HEPES, 10 mM MgCb, 1 mM EGTA, 2 mM DTT, 0.1 mg/mL BSA, and 0.005% w/v tween 20, pH 7.5. Enzyme dilution buffer was made by supplementing assay buffer with 25% w/v glycerol. Antibody dilution buffer contained 20 mM Tris, 137 mM NaCl, and 0.05% w/v tween 20, pH 8.0. Buffers were prepared at room temperature. Enzyme solutions were made on ice, while other solutions were made at room temperature and all subsequent assay steps were performed at room temperature. The TrkA stock solution (0.1 mg/mL) was diluted 156× in enzyme dilution buffer and then 100× in assay buffer. Five pL/well of enzyme solution was added to the assay plate (Greiner black 384-well nonbinding plate), with buffer containing no enzyme added to negative control wells. Test compounds were serially diluted in DMSO at 300× final assay concentration. One μL of each test compound dilution was mixed with 99 pL assay buffer plus ATP (30 μM) and five pL of each test compound-ATP solution was added to w¾13s containing enzyme. Positive control wells contained enzyme and substrates but no test compounds. After a 15 minute enzyme-test compound preincubation, five pL of substrate diluted in assay buffer was added to all wells. Final assay concentrations were 33 pM TrkA, 100 nM peptide substrate, and […]. After a five minute reaction, five pL of 80 mM EDTA was added, followed five minutes later by five pL two nM antibody solution. The ratio of fluorescence at 665 nm vs. 615 nM in each well was determined using a Tecan Infinite Pro F200 plate reader. For each test compound well, percent inhibition w % s calculated (% inliib. =100-100*(test value-neg. control)/(pos. control-neg. control)). Percent inhibition values were fit to a four parameter logistic to determine ICso values for each test compound.
The term IC50 denotes the concentration that inhibits the measured activity by half. In the case of `Fc1ccc(F)c([C@H]2CCCN2c2ccn3ncc(-n4cc(C(F)(F)F)cn4)c3n2)c1` [I-147], the IC50 is below 10 nM.
The same measure for `COc1cnccc1-c1cnn(-c2cnn3ccc(N4CCC[C@@H]4c4cc(F)ccc4F)nc23)c1` [I-204]: below 10 nM; for `Fc1ccc(F)c([C@H]2CCCN2c2ccn3ncc(-n4cc(-c5cccnc5)cn4)c3n2)c1` [I-159]: below 10 nM; for `Cc1ncc(-c2cnn(-c3cnn4ccc(N5CCC[C@@H]5c5cc(F)ccc5F)nc34)c2)s1` [I-164]: below 10 nM.
With `Cc1cnn(-c2cnn3ccc(N4CCC[C@@H]4c4ncccc4F)nc23)c1` [I-182, (R)-5-(2-(3-fluoropyridin-2-yl)pyrrolidin-1-yl)-3-(4-methyl-1H-pyrazol-1-yl)pyrazolo[1,5-a] pyrimidine] the figure was below 10 nM; with `Fc1ccc(F)c([C@H]2CCCN2c2ccn3ncc(-n4cc(-c5ccccc5)cn4)c3n2)n1` [I-193], below 10 nM.
As for `Cc1noc(C)c1-c1cnn(-c2cnn3ccc(N4CCC[C@@H]4c4cc(F)ccc4F)nc23)c1` [I-157, (R)-4-(1-(5-(2-(2,5-difluorophenyl)pyrrolidin˜yl)pyrazolo[,5-a]pyrimidin-3-yl)-1H-pyrazol-4-yl)-3,5-dimethylisoxazole], the half-inhibitory concentration (IC50) is below 10 nM.
Consider `Fc1ccc(F)c([C@H]2CCCN2c2ccn3ncc(-n4cncn4)c3n2)c1` [I-168], for which the half-maximal inhibitory concentration (IC50) is below 10 nM.
With `OCCc1cnn(-c2cnn3ccc(N4CCC[C@@H]4c4cc(F)ccc4F)nc23)c1` [I-156] the figure was below 10 nM; with `COCc1cnn(-c2cnn3ccc(N4CCC[C@@H]4c4cc(F)ccc4F)nc23)c1` [I-226], below 10 nM.
The same measure for `COc1cc(C)n(-c2cnn3ccc(N4CCC[C@@H]4c4cc(F)ccc4F)nc23)n1` [I-167]: above 500 nM; for `COc1ccc(-c2cnn(-c3cnn4ccc(N5CCC[C@@H]5c5nc(F)ccc5F)nc34)c2)cn1` [I-221, (R)-5-(2-(3,6-difluoropyridin-2-yl)pyrrolidin-1-yl)-3-(4-(6-methoxypyridin-3-yl)-1H-pyrazol-1-yl)pyrazolo[1,5-a]pyrimidine]: below 10 nM.
Take `Fc1ccc(F)c([C@H]2CCCN2c2ccn3ncc(-n4cc(C(F)F)cn4)c3n2)c1` [I-176, (R)-3-(4-(difluor®methyl)-1H-pyrazol-1-yl)-5-(2-(2,5-difluorophenyl)pyrrolidin-˜yl)pyrazolo[1,5-a]pyriniidine]: the 50% inhibitory concentration (IC50) was below 10 nM.
On to `Fc1ccc(F)c([C@H]2CCCN2c2ccn3ncc(-n4cc(C5CCOC5)cn4)c3n2)c1` (stereo partly shown) [I-210], for which the 50% inhibitory concentration (IC50) is below 10 nM.
With `Fc1ccc(F)c([C@H]2CCCN2c2ccn3ncc(-n4cc(-c5ccoc5)cn4)c3n2)c1` [I-189] the figure was below 10 nM; with `COc1cc(C)nn1-c1cnn2ccc(N3CCC[C@@H]3c3cc(F)ccc3F)nc12` [I-166], above 500 nM.
With `Fc1ccc(F)c([C@H]2CCCN2c2ccn3ncc(-n4cc(-c5ccc(F)nc5)cn4)c3n2)c1` [I-219, (R)-5-(2-(2,5-difluorophenyl)pyrrolidin-1-yl)-3-(4-(6-fluoropyridin-3-yl)-1H-pyrazol-1-yl)pyrazolo[1,5-a]pyrimidine] the figure was below 10 nM.
With `COc1cncc(-c2cnn(-c3cnn4ccc(N5CCC[C@@H]5c5ncccc5F)nc34)c2)c1` [I-211] the figure was below 10 nM.
Turning to `O=C(c1cnn(-c2cnn3ccc(N4CCC[C@@H]4c4cc(F)ccc4F)nc23)c1)N1CCOCC1` [I-185, (R)-(1-(5-(2-(2,5-difluoropheiiyl)pyrrolidin-1-yl)pyrazolo[la]pyrimidin-3-yl)-1H-pyrazol-4-yl)(morpholino)methanone], the half-inhibitory concentration (IC50) was below 10 nM.
Regarding `Fc1ccc(F)c([C@H]2CCCN2c2ccn3ncc(-n4cc(-c5cncnc5)cn4)c3n2)c1` [I-163], the IC50 was below 10 nM.
The same measure for `Cc1nn(-c2cnn3ccc(N4CCC[C@@H]4c4cc(F)ccc4F)nc23)cc1-c1ccccc1` [I-151]: below 10 nM; for `Fc1ccc(F)c([C@H]2CCCN2c2ccn3ncc(-n4cc(OC5COC5)cn4)c3n2)c1` [I-179]: below 10 nM.
With `Cc1cn(-c2cnn3ccc(N4CCC[C@@H]4c4cc(F)ccc4F)nc23)nc1C` [I-150] the figure was below 10 nM; with `CN(C)C(=O)Nc1cnn(-c2cnn3ccc(N4CCC[C@@H]4c4cc(F)ccc4F)nc23)c1` [I-197], below 10 nM.
The same measure for `Fc1ccc(F)c([C@H]2CCCN2c2ccn3ncc(-n4cc5c(n4)CCOC5)c3n2)c1` [I-183, (R)-2-(5-(2-(2,5-difluorophenyl)pyrrolidin-1-yl)pyrazolo[1,5-a]pyrimidin-3-yl)-2,4,6,7-tetrahydropyrano[4,3-c]pyrazole]: below 10 nM; for `Fc1ccc(F)c([C@H]2CCCN2c2ccn3ncc(-n4cc(-c5cn[nH]c5)cn4)c3n2)c1` [I-171]: below 10 nM.
Turning to `Fc1ccc(F)c([C@H]2CCCN2c2ccn3ncc(-n4cc(C5CCOCC5)cn4)c3n2)c1` [I-187, (R)-5-(2-(2,5-difluorophenyi)pyrrolidin-1-yl)-3-(4-(tetrahydro-2H-pyran-4-yl)-1H-pyrazol-1-yl)pyrazolo[1,5-a]pyrimidine], the half-inhibitory concentration (IC50) was below 10 nM.
With `Fc1ccc(F)c([C@H]2CCCN2c2ccn3ncc(-n4cc(-c5cnccn5)cn4)c3n2)c1` [I-153] the figure was below 10 nM.
The same measure for `Cc1cnn(-c2cnn3ccc(N4CCC[C@@H]4c4nc(N(C)C)ccc4F)nc23)c1` [I-217, (R)-5-fluoro-N,N-dimethyl-6-(1-(3-(4-methyl-1H-pyrazol-1-yl)pyrazolo[1,5-a]pyrimidin-5-yl)pyrrolidin-2-yl)pyridin-2-amine]: below 10 nM; for `COCCOCc1cnn(-c2cnn3ccc(N4CCC[C@@H]4c4cc(F)ccc4F)nc23)c1` [I-180, (R)-5-(2-(2,5-difluerophenyl)pyrrolidin-1-yl)-3-(4-((2-methoxyethoxy)methyl)-1H-pyrazol-1-yl)pyrazolo[1,5-a]pyrimidine]: below 10 nM.
The same measure for `CN(C)S(=O)(=O)Nc1cnn(-c2cnn3ccc(N4CCC[C@@H]4c4cc(F)ccc4F)nc23)c1` [I-198, (R)—N-(1-(5-(2-(2,5-difluorophenyl)pyrrolidin-1-yl)pyrazolo[1,5-a]pyrimidin-3-yl)-1H-pyrazol-4-yl)-1,1-dimethylsulfonylurea]: below 10 nM.
As for `CP(C)(=O)c1cnn(-c2cnn3ccc(N4CCC[C@@H]4c4cc(F)ccc4F)nc23)c1` [I-174, (R)-(1-(5-(2-(2,5-difluorophenyl)pyrrolidm-1-yl)pyrazolo[1,5-a]pyrimidin-3-yl)-1H-pyrazol-4-yl)dimethylphosphine-oxide], the 50% inhibitory concentration (IC50) was below 10 nM.
With `Fc1ccc(F)c([C@H]2CCCN2c2ccn3ncc(-n4cc(-c5ccccc5)cn4)c3n2)c1` [I-149] the figure was below 10 nM; with `OC1CCN(c2cnn(-c3cnn4ccc(N5CCC[C@@H]5c5cc(F)ccc5F)nc34)c2)C1` (stereo partly shown) [I-208], below 10 nM.

The values are drawn from patent US12486276B2, “5-(2,5-difluorophenyl)pyrrolidin-1-yl)-3-(1H-pyrazol-1-yl)pyrazolo[1,5-a]pyrimidine derivatives and related compounds as Trk kinase inhibitors for treating cancer” (Pyramid Biosciences, Inc., priority 2017, dated 2025).
